Among the data in PubChem BioAssay (NCI) are TGI values, retold here.

What is called TGI is the concentration at which net growth stops. High values mean lower sensitivity of the cells, low ones greater sensitivity of the cells.

Assay in all cases: DTP human tumour cell line panel, 48 h
The subject of experiment [1] is HL-60(TB) leukemia.
Experiment [2] has as its system HCC-2998 colon.
The subject of experiment [3] is SK-MEL-2 melanoma.
The test system of experiment [4] is 786-0 renal.
In experiment [5] the test system is SF-539 CNS.
Experiment [6] relates to OVCAR-4 ovarian.
The test system of experiment [7] is K-562 leukemia.
Experiment [8] has as its system MALME-3M melanoma.
Experiment [9] deals with UO-31 renal.
Experiment [10] has as its system UACC-257 melanoma.
Experiment [11] concerns A549 NSCLC.
Experiment [12] relates to MDA-MB-435.

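Dose response: 5 concentrations. Exposure: 48 h. Format: 96-well plates. Endpoint: linear interpolation; highest concentration if not reached. Definition used: TGI = concentration required for complete inhibition of growth.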 Where a SMILES comes first, the peptide text is derived from it. The star is where a group is joined. Boc = CC(C)(C)OC(=O)*

Consider `COc1cc(O)c(/C=N/N=C(\N)NO)c(OC)c1`, for which the TGI in experiment [1], in experiment [2], in experiment [3], in experiment [4], in [5] and in [6] was over 10 µM each time. Moreover, the TGI in [7], in [8], in experiment [9], in experiment [10], in experiment [11] and in experiment [12] was over 10 µM throughout.

As for `COC(=O)CNC(=O)C(Cc1ccccc1)NC(=O)C(CCSC)NC(=O)C(Cc1ccc(O)cc1)NC(=O)OC(C)(C)C` (stereo unspecified) (Boc-YMFG-OMe; configuration not given here), the TGI in [1] was over 100 µM; in experiment [2], 64.1 µM; in experiment [3] it was 33.1 µM; in experiment [4] it was over 100 µM; in [5], over 100 µM; in experiment [6] it was over 100 µM. Moreover, the TGI in experiment [7] was over 100 µM; in experiment [8], over 100 µM; in experiment [9], over 100 µM; in experiment [10] it was 38.2 µM; in [11], over 100 µM; in [12], over 100 µM.

Take `Cc1nnc2n1N=C(c1cc(F)c(Cl)cc1Cl)/C(=C/c1ccc(Cl)cc1)S2`: the TGI is over 100 µM in [1]; 28.5 µM in [2]; 26.2 µM in [3]; 36.8 µM in experiment [4]; 92.3 µM in experiment [5]; 33.3 µM in experiment [6]. Moreover, the TGI in experiment [7] is over 100 µM; in experiment [8], 58.9 µM; in experiment [9], 27.4 µM; in [10], 44.6 µM; in experiment [11] it was 99.6 µM; in experiment [12], 29.1 µM.

For `O=C(O)CN(CCNC(=O)OCC1c2ccccc2-c2ccccc21)CCNC(=O)OCC1c2ccccc2-c2ccccc21`, the TGI in experiment [1] was determined as 50.1 µM; in [2], 51.3 µM; in [3], 46.6 µM; in experiment [4], 36 µM; in experiment [5], 46.7 µM; in experiment [6], 64.4 µM. Moreover, the TGI came to 39.9 µM in experiment [7]; 38.9 µM in [8]; 37.5 µM in [9]; 68.8 µM in experiment [10]; 49.1 µM in experiment [11]; 34.4 µM in [12].

Regarding `Cc1c(-c2nc3ccccc3[nH]2)c(=O)n(-c2ccccc2)n1C`, the TGI in experiment [1], in experiment [2], in [3], in experiment [4], in experiment [5] and in experiment [6] was over 100 µM throughout. The TGI in [7], in [8], in [9], in [10], in experiment [11] and in [12] was over 100 µM throughout.

On to `CN(C)CCCOC(=O)C(c1ccccc1)C1(O)CCSCC1` (stereo unspecified), for which the TGI in experiment [1], in [2], in experiment [3], in experiment [4], in experiment [5] and in [6] was over 100 µM each time. Besides, the TGI in [7], in experiment [8], in experiment [9], in experiment [10], in [11] and in experiment [12] was over 100 µM each time.

Take `CC(C)(N=NC(C)(C)C(=O)NCCO)C(=O)NCCO`: the TGI in [1], in experiment [2], in experiment [3], in [4], in [5] and in [6] was over 100 µM in each case. In addition, the TGI in [7], in [8], in experiment [9], in [10], in experiment [11] and in experiment [12] was over 100 µM each time.

`CC(CN1c2ccccc2Sc2ccccc21)N(C)C` (stereo unspecified): the TGI is 39.9 µM in experiment [1]; 37.5 µM in experiment [2]; 34.7 µM in experiment [3]; 27.9 µM in experiment [4]; 34 µM in [5]; 32.5 µM in [6]. For the same compound, the TGI is 36.1 µM in [7]; 34.5 µM in [8]; 32.8 µM in experiment [9]; 39.4 µM in experiment [10]; 35.7 µM in experiment [11]; 31.2 µM in experiment [12].

On to `NCC1CCN(c2nc3ccccc3c3c2CCCC3)CC1`, for which the TGI in experiment [1] was 8.13 µM; in experiment [2], 3.46 µM; in experiment [3], 11.3 µM; in experiment [4], 12.3 µM; in experiment [5] it was 11.3 µM; in experiment [6], 23.2 µM. Also, the TGI worked out at 8.07 µM in experiment [7]; 26 µM in experiment [8]; 11.9 µM in [9]; 6.84 µM in experiment [10]; 24.9 µM in experiment [11]; 7.13 µM in experiment [12].

As to `Brc1ccc(CCNCCN2CCCCC2)cc1`, the TGI was over 100 µM in experiment [1]; 27.7 µM in [2]; 34.5 µM in experiment [3]; 27.5 µM in experiment [4]; 23.3 µM in [5]; 48.1 µM in experiment [6]. Besides, the TGI in [7] is over 100 µM; in [8], 31.7 µM; in experiment [9], 24.6 µM; in experiment [10], 28.3 µM; in experiment [11] it was 30 µM; in experiment [12] it was 18.2 µM.

For `O=c1nc(N2CCN(c3ccccc3)CC2)ccn1C1OC(CO)C(O)C1O` (stereo unspecified), the TGI is 63.5 µM in [1]; over 100 µM in experiment [2]; over 100 µM in [3]; over 100 µM in experiment [4]; over 100 µM in experiment [5]; over 100 µM in experiment [6]. Moreover, the TGI in experiment [7], in [8], in experiment [9], in experiment [10], in experiment [11] and in experiment [12] was over 100 µM in each case.

Regarding `Cc1c(F)c(N)c2c(=O)cc(-c3ccc(NC(=O)CN(C)C)c(F)c3)oc2c1F`, the TGI in [1] is 46.4 µM; in [2] it was over 100 µM; in experiment [3] it was over 100 µM; in experiment [4], over 100 µM; in experiment [5] it was over 100 µM; in experiment [6], over 92.5 µM. Moreover, the TGI is 98.9 µM in [7]; over 100 µM in [8]; over 100 µM in [9]; over 100 µM in [10]; over 100 µM in experiment [11]; over 100 µM in experiment [12].

Regarding `CN(CCC#N)c1ccc(/C=C2\SC(=S)NC2=O)cc1`, the total growth inhibition concentration (TGI) in experiment [1], in [2], in experiment [3], in experiment [4], in experiment [5] and in [6] was over 100 µM each time. Moreover, the TGI in experiment [7], in [8], in [9], in [10], in experiment [11] and in [12] was over 100 µM throughout.
